Experiments:
[1] = test system: yeast strain, XD83; assay: Phototoxicity test based on survival of yeast under simulated sunlight; type: cell-based; settings: simulated sunlight 13 mW/cm^2
Procedure: The phototoxicity tests are based on the survival of a yeast strain, XD83. A single colony of yeast is inoculated into growth medium, and harvested during the exponential growth. The cells are suspended at a known concentration in a phosphate buffer, to afford a uniform population of cells. The cells are illuminated with simulated sunlight (13 mW/cm^2) in the absence or presence of test compounds with continous stirring. Samples are taken at increasing times (0, 10, 20, 30 minutes of illumination). The samples are analyzed semi-quantitatively, by applying two dilutions of the sample as small droplets (10 μl) to the surface of nutrient agar plates, and incubated at 37° C. for 48 hours. Patches of growth are found around the droplet. It can be easily seen when growth has been decreased. Sunscreen samples are introduces as 1000 μM concentration of the major UVB sunscreen active ingredient.

[2] = test system: supercoiled plasmid DNA; settings: positive controls at saturation concentrations; cited from earlier work

For `CCCCC(CC)COC(=O)c1ccc(N(C)C)cc1` (stereo not drawn) [Padimate-O, 2-Ethylhexyl N,N-Dimethyl-p-aminobenzoate], which “phototoxic effect on the growth of the yeast cell” value ([1]; positive controls) is on record?
Its value is “strong phototoxic effect”.

What about the Phototoxicity ([1]; yeast XD83, 0-30 minutes illumination, 1000 μM of major UVB sunscreen active ingredient) of the same molecule?
Its Phototoxicity is “Clearly toxic”.

What about the “strand breaks on DNA when illuminated in vitro” value [2] of the same molecule?
Its value is “inflict strand breaks on DNA”.

From patent publication US6468509B2, “Sunscreen composition containing sol-gel microcapsules” (Sol-Gel Technologies Ltd., priority 1999, dated 2002)
